{"source": "patent US9585964B2", "about": "“Liver targeted conjugates” (President and Fellows of Harvard College, priority 2005, dated 2017)", "system": "hepatic injury induced by carbon tetrachloride (CCl4)", "experiment": "mouse model of hepatic injury induced by carbon tetrachloride (CCl4); serum ALT and AST", "format": "in vivo", "conditions": "ICR mice; for increase in serum ALT compared to the vehicle control / increase in serum AST compared to the vehicle control: CCl4", "method": "An indomethacin-simvastatin conjugate (Ind-S) and lovastatin alone were evaluated for possible hepatoprotective activity in a mouse model of hepatic injury induced by carbon tetrachloride (CCl4). Ind-S at 0.5, 1 and 5 μmol/kg and lovastatin at 30 mg/kg were each administered intraperitoneally 0.5 hour before and at 4 and 8 hours after CCl4 challenge. The degree of hepatic injury was manifested by increases in alanine aminotransferase (ALT) and aspartate aminotransferase (AST) levels relative to the vehicle-treated animals. A decrease of 30% or more in serum ALT or AST is considered significant protective activity. The test substances were provided at the indicated concentrations. […] The test substances were administered intraperitoneally at 0.5 hour before and 4 and 8 hours after CCl4 administration to test mice. The dosing volume was 5 mL/kg. Male ICR derived mice weighing 24±2 g and provided by BioLasco Taiwan, a Charles River Laboratories Technology Licensee, were used in the study Space allocation for animals was 29×18×13 cm for 10 mice. The animals were housed in APEC^R cages. All animals were maintained in a hygienic environment under controlled temperature (22-24° C.) and humidity (60%-70%) with 12 hours light/dark cycles for at least one week prior to use with free access to standard lab chow (LabDiet Rodent Diet, PMI Nutrition International, USA) and tap water. Seven groups of five ICR derived male mice (weighing 24±2 g) were used. Each animal was challenged with a single dose of carbon tetrachloride (CCl4, 0.1 mL/kg in 50% olive oil, PO). The test substances were administered intraperitoneally at 30 minutes before and 4, 8 hours after carbon tetrachloride challenge and the animals were sacrificed 24 hours later. Serum alanine aminotransferase (ALT) and aspartate aminotransferase (AST) levels were measured by optimized UV method using a HITACHI automatic analyzer (model 7050). Silymarin (300 mg/kg, PO) as the positive control agent was administered orally to test animals at the same time."}
{"smiles": "COc1ccc2c(c1)c(CC(=O)OCCNC(=O)CCC(C)(C)C(=O)O[C@H]1C[C@@H](C)C=C3C=C[C@H](C)[C@H](CC[C@@H]4C[C@@H](O)CC(=O)O4)[C@H]31)c(C)n2C(=O)c1ccc(Cl)cc1", "note": "[Ind-S, 6(R)-[2-[8(S)-{4-(2-{2-[1-(4-Chloro-benzoyl)-5-methoxy-2-methyl-1H-indol-3-yl]-acetoxy}-ethylcarbamoyl)-2,2-dimethyl-butyryloxy}-2(S),6(R)-dimethyl-1,2,6,7,8,8,a(R)-hexahydronaphthyl-1(S)]ethyl]-4(R)-hydroxy-3,4,5,6-tetrahydro-2H-Pyran-2-one]", "values": [{"measurement": "reduction in serum ALT level relative to the vehicle-treated group", "setting": "5 μmol/kg IP, 0.5 h before and 4 and 8 h after CCl4, non-significant", "value": 21, "unit": "%"}, {"measurement": "reduction of AST activity relative to the vehicle-treated group", "setting": "5 μmol/kg IP, 0.5 h before and 4 and 8 h after CCl4, serum at 24 h", "value": 34, "unit": "%"}]}
{"smiles": "CC[C@H](C)C(=O)O[C@H]1C[C@@H](C)C=C2C=C[C@H](C)[C@H](CC[C@@H]3C[C@@H](O)CC(=O)O3)[C@H]21", "note": "[Lovastatin]", "values": [{"measurement": "increase in serum ALT compared to the vehicle control", "setting": "30 mg/kg IP", "value": 17, "unit": "%"}, {"measurement": "increase in serum AST compared to the vehicle control", "setting": "30 mg/kg IP", "value": 38, "unit": "%"}]}
{"smiles": "COc1ccc2c(c1)c(CC(=O)O)c(C)n2C(=O)c1ccc(Cl)cc1", "note": "[indomethacin]", "values": [{"measurement": "increase in serum ALT compared to the vehicle control", "setting": "5 μmol/kg IP", "value": 39, "unit": "%"}, {"measurement": "increase in serum AST compared to the vehicle control", "setting": "5 μmol/kg IP", "value": 73, "unit": "%"}]}
